This passage reports IC50 results from patent US9856279B2 (AGIOS PHARMACEUTICALS, INC, priority 2011, dated 2018).

A value given as a limit tells only on which side of the number the result lay.

Sequence of IDH1 R132H (O75874 whole entry R132H): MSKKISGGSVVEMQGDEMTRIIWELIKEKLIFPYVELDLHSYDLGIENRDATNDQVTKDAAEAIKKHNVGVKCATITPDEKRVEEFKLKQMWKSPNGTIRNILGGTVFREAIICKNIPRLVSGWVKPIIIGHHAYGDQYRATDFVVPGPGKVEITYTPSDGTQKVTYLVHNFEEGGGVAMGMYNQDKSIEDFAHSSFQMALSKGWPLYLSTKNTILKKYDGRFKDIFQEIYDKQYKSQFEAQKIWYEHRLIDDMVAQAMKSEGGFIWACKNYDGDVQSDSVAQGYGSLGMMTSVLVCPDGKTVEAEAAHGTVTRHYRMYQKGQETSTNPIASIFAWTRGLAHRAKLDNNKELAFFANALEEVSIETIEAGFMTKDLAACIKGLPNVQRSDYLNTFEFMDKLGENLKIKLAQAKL

The target in the first experiment is IDH1 R132H (Homo sapiens, UniProt O75874, R132H). The experiment can be described thus: Assay for IDH1 R132H inhibitors (NADPH/aKG, resazurin detection). The format is biochemical. To be noted: Table 3; enzyme assay, 50 minutes at room temperature; read-out: IC50 (IDH1 R132H Inhibition). The method, boiled down:
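Read-out is resorufin fluorescence (Ex544/Em590) 5 min after adding a 30 μM resazurin detection mix. Before that, mutant enzyme (0.2 μg/ml in its mix) ran 50 min at room temperature with compound, 8 uM NADPH and 2 mM aKG (mix levels) in Tris pH 7.5 with NaCl, MgCl2, BSA.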
For the compound `COc1ccccc1-c1cc(C(C)C)nc(N2CCN(C(=O)c3ccoc3)CC2)c1C#N` [Compound 113, 2-(4-(furan-3-carbonyl)piperazin-1-yl)-6-isopropyl-4-(2-methoxyphenyl)nicotinonitrile], the half-maximal inhibitory concentration (IC50) was 5000 to 15000 nM. For `CC1CN(c2nc(-c3ccccc3)c(-c3ccccc3)cc2C#N)CCN1C(=O)c1ccoc1` (centres unmarked) [Compound 118, 2-(4-(furan-3-carbonyl)-3-methylpiperazin-1-yl)-5,6-diphenylnicotinonitrile], the IC50 lay within 5000 to 15000 nM.

For the compound `CC(C)c1cc(-c2cccc(F)c2)c(C#N)c(N2CC(C)N(C(=O)c3ccco3)C(C)C2)n1` (centres unmarked) [Compound 136, 4-(3-fluorophenyl)-2-(4-(furan-2-carbonyl)-3,5-dimethylpiperazin-1-yl)-6-isopropylnicotinonitrile], the IC50 was in the range of 5000 to 15000 nM.

For the compound `COc1ccccc1-c1cc(C(C)C)nc(N2CCN(C(=O)c3ccco3)C(C)C2)c1C#N` (centres unmarked) [Compound 147, 2-(4-(furan-2-carbonyl)-3-methylpiperazin-1-yl)-6-isopropyl-4-(2-methoxyphenyl)nicotinonitrile], the IC50 is 5000 to 15000 nM. The same measure, in the same setting: under `COc1ccccc1-c1cc(C(C)C)nc(N2CCN(C(=O)c3ccccc3)CC2)c1C#N` [Compound 105, 2-(4-benzoylpiperazin-1-yl)-6-isopropyl-4-(2-methoxyphenyl)nicotinonitrile] stands 1000 to 5000 nM; under `CC(C)c1nc(N2CCN(C(=O)Cc3ccccc3)[C@H](C)C2)c(C#N)cc1-c1ccccc1` [Compound 143, (R)-6-isopropyl-2-(3-methyl-4-(2-phenylacetyl)piperazin-1-yl)-5-phenylnicotinonitrile], 1000 to 5000 nM; under `CC(C)c1nc(N2CCN(C(=O)c3ccoc3)[C@H](C)C2)c(C#N)cc1-c1ccoc1` [Compound 204, (R)-2-(4-(furan-3-carbonyl)-3-methylpiperazin-1-yl)-5-(furan-3-yl)-6-isopropylnicotinonitrile], 1000 to 5000 nM.

For the compound `COc1ccccc1-c1cc(C(C)C)nc(N2CCN(C(=O)c3c[nH]c4ccccc34)CC2)c1C#N` [Compound 106], the IC50 is 5000 to 15000 nM. Regarding `COCCC(=O)N1CCN(c2nc(C3CC3)c(-c3ccc(OC(F)(F)F)cc3)cc2C#N)C[C@H]1C` [Compound 227, (R)-6-cyclopropyl-2-(4-(3-methoxypropanoyl)-3-methylpiperazin-1-yl)-5-(4-(trifluoromethoxy)phenyl)nicotinonitrile], the IC50 is not above 1000 nM. As to `CC(C)c1cc(-c2ccccc2)nc(N2CCN(C(=O)c3ccco3)C(C)C2)c1C#N` (centres unmarked) [Compound 108, 2-(4-(furan-2-carbonyl)-3-methylpiperazin-1-yl)-4-isopropyl-6-phenylnicotinonitrile], the IC50 lay within 5000 to 15000 nM. Consider `CC(C)c1nc(N2CCN(C(=O)c3ccoc3)[C@@H](C)C2)c(C#N)cc1-c1ccccc1` [Compound 144, (S)-2-(4-(furan-3-carbonyl)-3-methylpiperazin-1-yl)-6-isopropyl-5-phenylnicotinonitrile], for which the IC50 fell in the range of 1000 to 5000 nM. On the same count and under the same terms, under `COCCC(=O)N1CCN(c2nc(C(C)C)c(-c3cc4ccccc4o3)cc2C#N)C[C@H]1C` [Compound 209, (R)-5-(benzofuran-2-yl)-6-isopropyl-2-(4-(3-methoxypropanoyl)-3-methylpiperazin-1-yl)nicotinonitrile] stands 1000 to 5000 nM.

As to `COCCC(=O)N1CCN(c2nc(C(C)C)c(-c3ccc(C(F)(F)F)cc3)cc2C#N)C[C@H]1C` [Compound 189, (R)-6-isopropyl-2-(4-(3-methoxypropanoyl)-3-methylpiperazin-1-yl)-5-(4-(trifluoromethyl)phenyl)-nicotinonitrile], the IC50 fell in the range of 1000 to 5000 nM.

As for `CC(C)c1nc(N2CCN(C(=O)c3ccco3)CC2c2ccccc2)c(C#N)cc1-c1ccccc1` (centres unmarked) [Compound 166, 2-(4-(furan-2-carbonyl)-2-phenylpiperazin-1-yl)-6-isopropyl-5-phenylnicotinonitrile], the IC50 lay in the range of 5000 to 15000 nM. Still for that read-out and setting: under `COc1ccccc1-c1cc(C#N)c(N2CCN(C(=O)c3ccoc3)[C@H](C)C2)nc1C(C)C` [Compound 175, (R)-2-(4-(furan-3-carbonyl)-3-methylpiperazin-1-yl)-6-isopropyl-5-(2-methoxyphenyl)nicotinonitrile] stands 1000 to 5000 nM.

Staying with this experiment, now noted: enzyme assay of Example 12; read-out: IDH1R132H IC50.
As to `C[C@@H]1CN(c2nc(C3CC3)c(-c3cccc4c3CN(C)C4=O)cc2C#N)CCN1C(=O)C1CC1` [Compound 461, (R)-2-(4-(cyclopropanecarbonyl)-3-methylpiperazin-1-yl)-6-cyclopropyl-5-(2-methyl-1-oxoisoindolin-4-yl)nicotinonitrile], the IC50 is 500 to 1000 nM. The same measure, in the same setting: under `N#Cc1cc(-c2cccc3cnccc23)c(C2CC2)nc1N1CCN(C(=O)C2CC2)C(CC(F)(F)F)C1` (centres unmarked) [Compound 423, 2-(4-(cyclopropanecarbonyl)-3-(2,2,2-trifluoroethyl)piperazin-1-yl)-6-cyclopropyl-5-(isoquinolin-5-yl)nicotinonitrile] stands 500 to 1000 nM; under `C=CS(=O)(=O)N(c1cccc(-c2cc(C#N)c(N3CCN(C(=O)CCOC)[C@H](C)C3)nc2C2CC2)c1)S(=O)(=O)C=C` [Compound 440, (R)—N-(3-(5-cyano-2-cyclopropyl-6-(4-(3-methoxypropanoyl)-3-methylpiperazin-1-yl)pyridin-3-yl)phenyl)-N-(vinylsulfonyl)ethenesulfonamide], less than 500 nM.

Regarding `CCC(=O)Nc1cccc(-c2cc(C#N)c(N3CCN(C(=O)C4CC4)[C@H](C4CC4)C3)nc2C2CC2)c1` [Compound 450, (R)—N-(3-(5-cyano-6-(4-(cyclopropanecarbonyl)-3-cyclopropylpiperazin-1-yl)-2-cyclopropylpyridin-3-yl)phenyl)propionamide], the IC50 is 500 to 1000 nM. Turning to `N#Cc1cc(-c2cnn(CC(N)=O)c2)c(C2CC2)nc1N1CCN(C(=O)C2CC2)[C@H](C2CC2)C1` [Compound 501, (R)-2-(4-(5-cyano-6-(4-(cyclopropanecarbonyl)-3-cyclopropylpiperazin-1-yl)-2-cyclopropylpyridin-3-yl)-1H-pyrazol-1-yl)acetamide], the IC50 lay in the range of 500 to 1000 nM. In the case of `Cc1cc(-c2cc(C#N)c(N3CCN(C(=O)C4CC4)[C@H](C4CC4)C3)nc2C2CC2)ccn1` [Compound 523, (R)-6-(4-(cyclopropanecarbonyl)-3-cyclopropylpiperazin-1-yl)-2-cyclopropyl-2′-methyl-3,4′-bipyridine-5-carbonitrile], the IC50 is 500 to 1000 nM.

In the case of `COCCC(=O)N1CCN(c2nc(C3CC3)c(-c3ccc(C(=O)N4CCCC4)cc3)c(C)c2C#N)C[C@H]1C` [Compound 333, (R)-6-cyclopropyl-2-[4-(3-methoxy-propionyl)-3-methyl-piperazin-1-yl]-4-methyl-5-[4-(pyrrolidine-1-carbonyl)-phenyl]-nicotinonitrile], the IC50 was less than 500 nM. As to `COCCC(=O)N1CCN(c2nc(C3CC3)c(-c3ccc4[nH]cc(C(=O)C(F)(F)F)c4c3)cc2C#N)C[C@H]1C` [Compound 317, (R)-6-cyclopropyl-2-(4-(3-methoxypropanoyl)-3-methylpiperazin-1-yl)-5-(3-(2,2,2-trifluoroacetyl)-1H-indol-5-yl)nicotinonitrile], the IC50 was in the range of 500 to 1000 nM. On to `COCCC(=O)N1CCN(c2nc(C3CC3)c(-c3cccc(F)c3F)c(C)c2C#N)C[C@H]1C` [Compound 405, (R)-6-cyclopropyl-5-(2,3-difluoro-phenyl)-2-[4-(3-methoxy-propionyl)-3-methyl-piperazin-1-yl]-4-methyl-nicotinonitrile], for which the IC50 was less than 500 nM. `C=Cc1cc(-c2cc(C#N)c(N3CCN(C(=O)CN4CCCC4=O)[C@H](C4CC4)C3)nc2C2CC2)ccn1` [Compound 814, (R)-2-cyclopropyl-6-(3-cyclopropyl-4-(2-(2-oxopyrrolidin-1-yl)acetyl)piperazin-1-yl)-2′-vinyl-3,4′-bipyridine-5-carbonitrile]: the half-inhibitory concentration (IC50) was in the range of 500 to 1000 nM. In the case of `COCCC(=O)N1CCN(c2nc(C3CC3)c(-c3ccc(F)cc3)c(COC)c2C#N)C[C@H]1C` [Compound 298, (R)-6-cyclopropyl-5-(4-fluorophenyl)-4-(methoxymethyl)-2-(4-(3-methoxypropanoyl)-3-methylpiperazin-1-yl)nicotinonitrile], the IC50 was in the range of 500 to 1000 nM. On the same count and under the same terms, under `N#Cc1cc(-c2cccnc2)c(C2CC2)nc1N1CCN(C(=O)CC(F)(F)F)[C@H](C2CC2)C1` [Compound 524, (R)-2-cyclopropyl-6-(3-cyclopropyl-4-(3,3,3-trifluoropropanoyl)piperazin-1-yl)-[3,3′-bipyridine]-5-carbonitrile] stands less than 500 nM; under `C=Cc1ccnc(Nc2cc(C#N)c(N3CCN(C(=O)C[C@H]4CCCO4)[C@H](C4CC4)C3)nc2C2CC2)c1` [Compound 828], less than 500 nM. On the same count and under the same terms, under `COCCC(=O)N1CCN(c2nc(C3CC3)c(N3CCN(C(C)=O)CC3)cc2C#N)C[C@H]1C` [Compound 368, (R)-5-(4-acetylpiperazin-1-yl)-6-cyclopropyl-2-(4-(3-methoxypropanoyl)-3-methylpiperazin-1-yl)nicotinonitrile] stands 500 to 1000 nM; under `C[C@@H]1CN(c2nc(C3CC3)c(-c3cccc4cnccc34)cc2C#N)CCN1C(=O)C1CC1` [Compound 556, (R)-2-(4-(cyclopropanecarbonyl)-3-methylpiperazin-1-yl)-6-cyclopropyl-5-(isoquinolin-5-yl)nicotinonitrile], less than 500 nM. In the case of `CCOC(=O)[C@@H]1C[C@H]1C(=O)N1CCN(c2nc(C3CC3)c(-c3cccc4cnccc34)cc2C#N)C[C@H]1C` [Compound 435, (1R,2R)-ethyl 2-((R)-4-(3-cyano-6-cyclopropyl-5-(isoquinolin-5-yl)pyridin-2-yl)-2-methylpiperazine-1-carbonyl)cyclopropanecarboxylate], the IC50 lay in the range of 500 to 1000 nM.

With `COCCC(=O)N1CCN(c2nc(C3CC3)c(-c3ccc(N4CCOCC4)cc3)cc2C#N)C[C@H]1C` [Compound 354, (R)-6-cyclopropyl-2-[4-(3-methoxy-propionyl)-3-methyl-piperazin-1-yl]-5-(4-morpholin-4-yl-phenyl)-nicotinonitrile], the IC50 was 500 to 1000 nM.
